Laboratory results taken from the NIST ThermoML archive (doi:10.1016/j.jct.2012.06.030).
± gives the expanded uncertainty stated by the source.

Assay: molar heat capacity at constant pressure; xn = mol fraction of the nth substance listed
Conditions: 101 kPa, Liquid, Small sample (50 mg) DSC, x2 = 0

O [water] + CCCCCC[n+]1ccc2ccccc2c1.N#C[S-]
Conditions	molar heat capacity at constant pressure [J/K/mol]
288.15 K	75.9 ± 3.2
293.15 K	75.8 ± 3.2
298.15 K	75.7 ± 3.2
303.15 K	75.7 ± 3.2
308.15 K	75.6 ± 3.2
313.15 K	75.5 ± 3.2
318.15 K	75.5 ± 3.2
323.15 K	75.4 ± 3.2
328.15 K	75.4 ± 3.2
333.15 K	75.3 ± 3.2
338.15 K	75.3 ± 3.2
343.15 K	75.3 ± 3.2
